According to article PMC7284870, “Antimicrobial Peptides from Rat-Tailed Maggots of the Drone Fly Eristalis tenax Show Potent Activity against Multidrug-Resistant Gram-Negative Bacteria” (Microorganisms, 2020):
Where two headings read alike, the source gives them in different places. Blank lines part the entries; values can stand above or below the substance they belong to. No end group written: not given here.

Key:
E. coli RKI 131/08 = test: microbe, parasite or virus in culture; type: cell-based, Escherichia coli
Protocol: (§1) The strains that were used in this study (Table 2 and Table S1) were cultivated at 37 °C in cation-adjusted Mueller–Hinton broth (CAMB) in Erlenmeyer flasks, or on the same medium with agar in Petri dishes. Exceptionally, Mycobacterium smegmatis was cultivated at 37 °C in brain heart infusion (BHI) medium that was supplemented with 1% Tween-80 in Erlenmeyer flasks, or on the same medium lacking detergent but with agar in Petri dishes. Strains listed with Robert Koch Institute (RKI) strain numbers are clinical isolates from the RKI strain collection originating from hospitalized patients in Germany. The remaining strains originated from the Sanofi strain collection and they were originally purchased from the American Type Culture Collection or the German Collection of Microorganisms and Cell Cultures. Meropenem/colistin-resistant strains were maintained, as described above, with the appropriate antibiotic added at levels below the minimal inhibitory concentration (MIC).
(§2) The MIC values were determined in 384-well microtiter plates with an assay volume of 20 µL. Immediately before each assay, the cultures of test organisms (bacteria grown for 18 h, Candida albicans and M. smegmatis grown for 48 h) were diluted with the appropriate medium to a density of 1 × 10^6 cells/mL (C. albicans), 1 × 10^5 cells/mL (M. smegmatis) or 5 × 10^5 cells per mL (other species). […] We transferred 2-µL aliquots from this dilution series to new 384-well microtiter plates while using a CyBio-Well 384-channel automated pipettor (Analytic Jena, Jena, Germany) and added 18 µL of the diluted suspension of each test species using a Viafill reagent dispenser (Integra), thus reducing the final peptide concentration 10-fold to the range 1024–0.03125 µg/mL. […] The growth of M. smegmatis was measured using the BacTiter-Glo luminescence test system (Promega, Madison, WI, USA). The growth of the other species was determined by visual inspection of the microtiter plate and turbidimetry based on the optical density at 600 nm (OD600). The MIC was defined as the peptide concentration at which no bacterial growth was observed. We supplemented the test medium with either 150 mM NaCl or 1.25 mM CaCl2 to represent monovalent and divalent cations to simulate physiological conditions.

E. coli RKI 6A-6 = test: microbe, parasite or virus in culture; type: cell-based, Escherichia coli
Protocol: as §1, §2

A. baumannii RKI 19/09 = test: microbe, parasite or virus in culture; type: cell-based, Acinetobacter baumannii
Protocol: as §1, §2

K. pneumoniae RKI 268/15 = type: cell-based, Klebsiella pneumoniae
Protocol: as §1, §2

K. pneumoniae RKI 68/16 = type: cell-based, Klebsiella pneumoniae
Protocol: as §1, §2

[1] = system: Enterococcus faecium DSM 17050; type: cell-based
Protocol: as §1, §2

Escherichia coli D31 = type: cell-based
Protocol: as §1, §2

[2] = system: Stenotrophomonas maltophilia RKI 136/09; type: cell-based; settings: n=3
Protocol: as §1, §2

[3] = system: Proteus mirabilis DSM 4479; type: cell-based
Protocol: as §1, §2

[4] = system: Klebsiella pneumoniae DSM 30104; type: cell-based
Protocol: as §1, §2

[5] = system: Staphylococcus aureus ATCC 25923; type: cell-based
Protocol: as §1, §2

[6] = system: Pseudomonas aeruginosa ATCC 27853; type: cell-based
Protocol: as §1, §2

[7] = system: Staphylococcus epidermidis ATCC 35984; type: cell-based
Protocol: as §1, §2

[8] = system: Mycobacterium smegmatis ATCC 607; type: cell-based
Protocol: as §1, §2

[9] = system: Acinetobacter baumannii ATCC 19606; type: cell-based
Protocol: as §1, §2

[10] = system: Listeria monocytogenes DSM 20600; type: cell-based
Protocol: as §1, §2

[11] = system: Klebsiella oxytoca RKI 52/07; type: cell-based
Protocol: as §1, §2

[12] = system: Enterobacter cloacae RKI 146/09; test: microbe, parasite or virus in culture; type: cell-based
Protocol: as §1, §2

E. coli ATCC 25922 = system: E. coli ATCC 25922
Protocol: as §1
The MIC values were determined in 384-well microtiter plates with an assay volume of 20 µL. Immediately before each assay, the cultures of test organisms (bacteria grown for 18 h, Candida albicans and M. smegmatis grown for 48 h) were diluted with the appropriate medium to a density of 1 × 10^6 cells/mL (C. albicans), 1 × 10^5 cells/mL (M. smegmatis) or 5 × 10^5 cells per mL (other species). The peptides were dissolved in sterile water at a concentration of 10.24 mg/mL and a 1:2 dilution series was prepared in a 384-well microtiter plate to achieve the concentration range 10,240–0.3125 µg/mL in a volume of 50 µL. We transferred 2-µL aliquots from this dilution series to new 384-well microtiter plates while using a CyBio-Well 384-channel automated pipettor (Analytic Jena, Jena, Germany) and added 18 µL of the diluted suspension of each test species using a Viafill reagent dispenser (Integra), thus reducing the final peptide concentration 10-fold to the range 1024–0.03125 µg/mL. The cells were incubated at 37 °C and 85% relative humidity, shaking at 180 rpm for 48 h (M. smegmatis), 24 h (C. albicans) or 18 h (other species). The growth of M. smegmatis was measured using the BacTiter-Glo luminescence test system (Promega, Madison, WI, USA). The growth of the other species was determined by visual inspection of the microtiter plate and turbidimetry based on the optical density at 600 nm (OD600). […] We supplemented the test medium with either 150 mM NaCl or 1.25 mM CaCl2 to represent monovalent and divalent cations to simulate physiological conditions.

S. aureus ATCC 33592 = type: cell-based, Staphylococcus aureus
Protocol: as §1, §2

K. pneumoniae RKI 93/10 = test: microbe, parasite or virus in culture; type: cell-based, Klebsiella pneumoniae
Protocol: as §1, §2

Canida albicans FH2173 = type: cell-based, Candida albicans; settings: 24 h
Protocol: as §1, §2

[13] = CAMB + 0.075 µg/mL colistin (Col), n=3
[14] = CAMB adjusted to 1.25 mM CaCl2, n=3
[15] = CAMB adjusted to 150 mM NaCl, n=3

Substance: GWLRDFGKRIERTGQNIRDATIQTIGIAQEAANVAATLKG [EtCec2]
MIC (E. coli RKI 131/08; [13]): 2 µg/mL
MIC (E. coli RKI 131/08; [14]): 64 µg/mL
MIC (E. coli RKI 131/08; [15]): 32 µg/mL
MIC (E. coli RKI 131/08; Table 4, CAMB, n=3): 32 µg/mL
MIC (E. coli RKI 6A-6; Table 4, CAMB, n=3): 256 µg/mL
MIC (A. baumannii RKI 19/09; [13]): 4 µg/mL
MIC (A. baumannii RKI 19/09; [15]): 16 µg/mL
MIC (A. baumannii RKI 19/09; Table 4, CAMB, n=3): 16 µg/mL
MIC (K. pneumoniae RKI 268/15; Table 4, CAMB, n=3): 256 µg/mL
MIC (K. pneumoniae RKI 68/16; Table 4, CAMB, n=3): 256 µg/mL
MIC ([1]; CAMB, 18 h, 37 °C, n = 4): >1024 µg/mL
MIC (Escherichia coli D31; CAMB, 18 h, 37 °C, n = 4): 16 µg/mL
MIC ([2]; CAMB adjusted to 150 mM NaCl): 256 µg/mL
MIC ([2]; Table 4, CAMB): 512 µg/mL
MIC ([3]; CAMB, 18 h, 37 °C, n = 4): >1024 µg/mL
MIC [4, 13]: 2 µg/mL
MIC [4, 14]: 32 µg/mL
MIC [4, 15]: 16 µg/mL
MIC ([4]; CAMB, 18 h, 37 °C, n = 4): 32 µg/mL
MIC ([4]; Table 4, CAMB, n=3): 32 µg/mL
MIC ([5]; CAMB, 18 h, 37 °C, n = 4): >1024 µg/mL
MIC ([6]; CAMB, 18 h, 37 °C, n = 4): >1024 µg/mL
MIC ([7]; CAMB, 18 h, 37 °C, n = 4): >1024 µg/mL
MIC ([8]; BHI, 48 h, 37 °C, BacTiter-Glo, n = 4): >1024 µg/mL
MIC [9, 13]: 16 µg/mL
MIC [9, 14]: 64 µg/mL
MIC [9, 15]: 8 µg/mL
MIC ([9]; CAMB, 18 h, 37 °C, n = 4): 32 µg/mL
MIC ([9]; Table 4, CAMB, n=3): 32 µg/mL
MIC ([10]; CAMB, 18 h, 37 °C, n = 4): >1024 µg/mL
MIC [11, 13]: 2 µg/mL
MIC ([11]; Table 5, CAMB, n=3): 32 µg/mL
MIC [12, 13]: 64 µg/mL
MIC [12, 14]: 128 µg/mL
MIC [12, 15]: 128 µg/mL
MIC ([12]; Table 4, CAMB, n=3): 64 µg/mL
MIC (E. coli ATCC 25922; [13]): 4 µg/mL
MIC (E. coli ATCC 25922; [14]): 128 µg/mL
MIC (E. coli ATCC 25922; [15]): 64 µg/mL
MIC (E. coli ATCC 25922; CAMB, 18 h, 37 °C, n = 4): 64 µg/mL
MIC (E. coli ATCC 25922; Table 4, CAMB, n=3): 64 µg/mL
MIC (S. aureus ATCC 33592; CAMB, 18 h, 37 °C, n = 4): >1024 µg/mL
MIC (K. pneumoniae RKI 93/10; [13]): 16 µg/mL
MIC (K. pneumoniae RKI 93/10; [14]): 256 µg/mL
MIC (K. pneumoniae RKI 93/10; [15]): 256 µg/mL
MIC (K. pneumoniae RKI 93/10; Table 4, CAMB, n=3): 128 µg/mL
MIC (Canida albicans FH2173; CAMB, 37 °C, n = 4): >1024 µg/mL

MIC (E. coli RKI 131/08; RKI 131/08, 18 h): >1024 µg/mL
MIC (A. baumannii RKI 19/09; RKI 19/09, 18 h): >1024 µg/mL
MIC ([1]; DSM 17050, 18 h): >1024 µg/mL
MIC ([3]; DSM 4479, 18 h): >1024 µg/mL
MIC ([4]; DSM 30104, 18 h): >1024 µg/mL
MIC ([5]; ATCC 25923, 18 h): >1024 µg/mL
MIC ([6]; ATCC 27853, 18 h): >1024 µg/mL
MIC ([7]; ATCC 35984, 18 h): >1024 µg/mL
MIC ([8]; ATCC 607, 48 h): >1024 µg/mL
MIC ([9]; ATCC 19606, 18 h): >1024 µg/mL
MIC ([10]; DSM 20600, 18 h): >1024 µg/mL
MIC ([11]; 18 h): >1024 µg/mL
MIC ([12]; RKI 146/09, 18 h): >1024 µg/mL
MIC (E. coli ATCC 25922; ATCC 25922, 18 h): >1024 µg/mL
MIC (S. aureus ATCC 33592; ATCC 33592, 18 h): >1024 µg/mL
MIC (K. pneumoniae RKI 93/10; RKI 93/10, 18 h): >1024 µg/mL
MIC (Canida albicans FH2173): >1024 µg/mL
Substance: GFLKKVGKKLEGASDLTRDATIQTIAVAQAAANVAATAKQG [EtCec3]

Substance: GFLKKIGKKLEGAVQRTRDATIQTIAVAQAAANVAATAKQG [EtCec1]
MIC (E. coli RKI 6A-6; RKI 6A-6, 18 h): 32 µg/mL
MIC (A. baumannii RKI 19/09; RKI 19/09, 18 h): 16 µg/mL
MIC (K. pneumoniae RKI 268/15; RKI 268/15, 18 h): 64 µg/mL
MIC (K. pneumoniae RKI 68/16; RKI 68/16, 18 h): 64 µg/mL
MIC ([1]; DSM 17050, 18 h): >1024 µg/mL
MIC (Escherichia coli D31; D31, 18 h): 16 µg/mL
MIC ([3]; DSM 4479, 18 h): >1024 µg/mL
MIC ([5]; ATCC 25923, 18 h): >1024 µg/mL
MIC ([6]; ATCC 27853, 18 h): 256 µg/mL
MIC ([7]; ATCC 35984, 18 h): >1024 µg/mL
MIC ([8]; ATCC 607, 48 h): >1024 µg/mL
MIC ([10]; DSM 20600, 18 h): >1024 µg/mL
MIC ([11]; 18 h): 16 µg/mL
MIC (E. coli ATCC 25922; ATCC 25922, 18 h): 16 µg/mL
MIC (S. aureus ATCC 33592; ATCC 33592, 18 h): >1024 µg/mL
MIC (Canida albicans FH2173): >1024 µg/mL

MIC (E. coli RKI 131/08; Table 5, CAMB, n=3): 0.5 µg/mL
MIC (A. baumannii RKI 19/09; Table 5, CAMB, n=3): 0.5 µg/mL
MIC ([4]; Table 5, CAMB, n=3): 0.5 µg/mL
MIC ([9]; Table 5, CAMB, n=3): 1 µg/mL
MIC ([11]; Table 5, CAMB, n=3): 2 µg/mL
MIC ([12]; Table 5, CAMB, n=3): 2 µg/mL
MIC (E. coli ATCC 25922; Table 5, CAMB, n=3): 0.5 µg/mL
MIC (K. pneumoniae RKI 93/10; Table 5, CAMB, n=3): 1 µg/mL
Substance: colistin [reference compound]
